Assay results as given in patent US20230242616A1, “CHEMOKINE-SELECTIVE CXCR4 ECTODOMAIN-DERIVED (POLY)PEPTIDE” (Ludwig-Maximilians-Universität München, priority 2020, published 2023).

Assays:
[1] = tested on: primary human monocyte-derived macrophages; test: Dil-LDL uptake / foam cell formation, MIF-mediated; format: cell-based; conditions: 80 nM MIF
Protocol: Dil-LDL uptake/foam cell formation. […] After washing with imaging solution (MEM without phenol red containing 30 mM HEPES, 0.5 g/L NaHCO3, pH 7.4, and 0.2% BSA), cells were exposed to 50 μg/mL 1,1′-dioctadecyl-3,3,3′3′-tetra-methylindocarbocyanine-labeled LDL (Dil-LDL) for 30 min at 4° C. followed by incubation at 37° C. for 20 min. Cells were washed with ice-cold imaging solution (pH 3.5), fixed, and counter-stained with Hoechst 33258.

[2] = tested on: human monocyte-derived macrophages; test: cells; conditions: Macrophage, read-out: IC50 of MIF-triggered Dil-oxLDL uptake
[3] = tested on: human monocyte-derived macrophages; conditions: from titration of the CXCR4 inhibitor
CXCL12 = target: T1, CXCL12 (Homo sapiens, UniProt P48061); test: Dot blot titration with TAMRA-msR4M-L1, immobilized CXCL12; format: binding
T1 construct: purchased Peprotech (or a gift of Dr. von Hundelshausen, LMU Munich)
T1 sequence (P48061 22-93): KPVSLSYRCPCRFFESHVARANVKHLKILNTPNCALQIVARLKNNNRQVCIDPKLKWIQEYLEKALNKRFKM
Protocol: Dot blot. […] Non-specific binding was blocked with Tris-buffered saline (TBS), pH 7.4, containing 0.1% Tween-20 (TBS-T) and 1% BSA. […] Fluorescence intensities were measured at 600 nm using an Odyssey® Fc imager (LICOR Biosciences, Bad Homburg, Germany). The total intensity of each spot was automatically corrected by the individual background signal.

plaque-associated MIF = target: T2, plaque-associated MIF (Mus musculus, UniProt P34884); test: Staining of mouse atherosclerotic plaque sections with Fluos-msR4M-L1; conditions: Ldlr−/− aortic root, Apoe−/− brachiocephalic artery
T2 construct: from tissue; host or cells: aortic root (Ldlr-/-) and brachiocephalic artery (Apoe-/-) sections of atherogenic mice
Protocol: Staining of atherosclerotic plaque tissue with Fluos-msR4M-L1. Immunofluorescent staining of atherosclerotic tissue with Fluos-msR4M-L1 was performed with specimens from atherogenic Ldlr^−/− and Apoe^−/− mice. Ldlr^−/− mice were on chow diet for 30 weeks and developed native atherosclerotic lesions as reported previously^14. Mif-deficient mice (Ldlr^−/− Mif^−/−) were used for comparison. Aortic root sections were deparaffinized and rehydrated. For antigen retrieval, slides were boiled in sodium citrate buffer, pH 6.0, 0.05% Tween-20, and blocked with PBS, containing 5% donkey serum and 1% BSA. For staining, slides were incubated at 4° C. with Fluos-msR4M-L1 (5 μM) in blocking buffer. DAPI was used for nuclear counterstain and sections were imaged using a Leica DMI8 fluorescent microscope. The mean fluorescence intensity localized to the aortic vessel wall was quantified via Image J.
Sides were fixed in ice-cold acetone, rehydrated in PBS, and blocked in PBS/1% BSA, incubated with 500 nM Fluos-msR4M-L1, and analyzed as above.

atherogenic Apoe−/− mice = test: Localization of in-vivo-administered Fluos-msR4M-L1 (multiphoton microscopy); design: species or system mouse; conditions: three days before vessel preparation
[4] = tested on: human carotid atherosclerotic plaque sections; test: Staining of human carotid endarterectomy plaque sections with Fluos-msR4M-L1
Source text: Patient population, study groups and tissue samples. Carotid artery tissue samples (n=28) came from the Munich Vascular Biobank (MVB) and were from patients who underwent carotid endarterectomy (CEA) in the Department of Vascular and Endovascular Surgery at University Hospital of Technische Universität München. Preparation of samples for histological and IHC analysis has been reported^40. […] Healthy FFPE carotid vessels were obtained from the Forensic Medicine Department (n=6). The type of atherosclerotic lesions in the CEA samples was determined according to the American Heart Association (AHA) guidelines using HE and Elastica-van-Gieson (EVG) staining procedures as described^40. […] The study was approved by the local ethical committee of the University Hospital and followed the Guidelines of the World Medical Association Declaration of Helsinki. All patients provided informed consent. Immunohistochemistry/immunofluorescence staining. Immunofluorescence staining of human CEA tissues with Fluos-msR4M-L1 was performed using the same protocol as for paraffin-embedded specimens from Ldlr^−/− mice (see above). […] HRP-conjugated polyclonal rabbit anti-goat immunoglobulin (DAKO, P0160, 1:1000) was used as secondary antibody. Slides were counterstained with Mayer hematoxylin and stainings analyzed with a Leica DMi8.

Molecule: c1cc(CN2CCCNCCNCCCNCC2)ccc1CN1CCCNCCNCCCNCC1 [AMD3100, reference compound]
- effect on MIF-mediated Dil-LDL uptake [1]: blocked
- IC50 [2]: 48.9 nM
- CXCR4-dependent part of MIF-triggered oxLDL uptake [3]: approximately 50%

Molecule: CC[C@H](C)[C@H](NC(=O)[C@H](Cc1ccc(O)cc1)NC(=O)[C@H](CCCNC(=N)N)NC(=O)[C@H](CC(=O)O)NC(=O)CCCCCCCCCCCNC(=O)CCCCCNC(=O)[C@H](CCCCN)NC(=O)[C@H](CS)NC(=O)[C@H](CC(C)C)NC(=O)[C@H](Cc1ccccc1)NC(=O)[C@H](CC(N)=O)NC(=O)CNC(=O)[C@H](Cc1ccccc1)NC(=O)[C@H](Cc1ccc(O)cc1)NC(=O)[C@H](Cc1c[nH]c2ccccc12)NC(=O)[C@H](CC(N)=O)NC(=O)[C@H](C)NC(=O)[C@@H](NC(=O)[C@H](C)NC(=O)[C@H](CC(=O)O)NC(=O)c1ccc2c(c1)C(=O)OC21c2ccc(N(C)C)cc2Oc2cc(N(C)C)ccc21)C(C)C)C(=O)N[C@@H](CS)C(=O)N[C@@H](CC(=O)O)C(=O)N[C@@H](CCCNC(=N)N)C(=O)N[C@@H](Cc1ccccc1)C(=O)N[C@@H](Cc1ccc(O)cc1)C(=O)N1CCC[C@H]1C(=O)N[C@@H](CC(N)=O)C(=O)N[C@@H](CC(=O)O)C(=O)N[C@@H](CC(C)C)C(=O)N[C@@H](Cc1c[nH]c2ccccc12)C(=O)N[C@H](C(N)=O)C(C)C [TAMRA-msR4M-L1, TAMRA-ECL1-6-Ahx-12-Ado-ECL2]
- binding to immobilized CXCL12 on dot blot (CXCL12): no binding to CXCL12

Molecule: Fluos-ECL1-6-Ahx-12-Ado-ECL2 (DAVANWYFGNFLCKDRYICDRFYPNDLWV; non-natural residues) [Fluos-msR4M-L1]
- staining of plaque sections, Mif-proficient versus Mif-deficient mice (plaque-associated MIF): significantly more pronounced in plaque tissue from Mif-proficient atherogenic
- tissue localization after intraperitoneal injection (atherogenic Apoe−/− mice): strongly localized to intimal plaque areas, while staining in spleen, liver, and brain was marginal
- staining of stable versus unstable human carotid plaques and healthy vessels [4]: pronounced staining of stable carotid plaque tissue that was higher than Fluos-msR4M-L1 positivity detected in unstable plaques and healthy vessels
